Data taken from BigSolDB 2.1.

## CC(=O)Oc1ccc(C(c2ccc(OC(C)=O)cc2)c2ccccn2)cc1
In 1,4-dioxane, 288.15 K
  solubility (mole fraction): 0.00241
In 1,4-dioxane, 293.15 K
  solubility (mole fraction): 0.00274
In 1,4-dioxane, 298.15 K
  solubility (mole fraction): 0.00307
In 1,4-dioxane, 303.15 K
  solubility (mole fraction): 0.00343
In 1,4-dioxane, 308.15 K
  solubility (mole fraction): 0.00378
In 1,4-dioxane, 313.15 K
  solubility (mole fraction): 0.00424
In DMF, 273.15 K
  solubility (mole fraction): 0.00201
In DMF, 278.15 K
  solubility (mole fraction): 0.00228
In DMF, 283.15 K
  solubility (mole fraction): 0.00255
In DMF, 288.15 K
  solubility (mole fraction): 0.00291
In DMF, 293.15 K
  solubility (mole fraction): 0.00325
In DMF, 298.15 K
  solubility (mole fraction): 0.00368
In DMF, 303.15 K
  solubility (mole fraction): 0.00407
In DMF, 308.15 K
  solubility (mole fraction): 0.00447
In DMF, 313.15 K
  solubility (mole fraction): 0.00496
In NMP, 273.15 K
  solubility (mole fraction): 0.00187
In NMP, 278.15 K
  solubility (mole fraction): 0.0021
In NMP, 283.15 K
  solubility (mole fraction): 0.00236
In NMP, 288.15 K
  solubility (mole fraction): 0.00264
In NMP, 293.15 K
  solubility (mole fraction): 0.00295
In NMP, 298.15 K
  solubility (mole fraction): 0.0033
In NMP, 303.15 K
  solubility (mole fraction): 0.00372
In NMP, 308.15 K
  solubility (mole fraction): 0.00418
In NMP, 313.15 K
  solubility (mole fraction): 0.00474
In acetone, 273.15 K
  solubility (mole fraction): 0.00126
In acetone, 278.15 K
  solubility (mole fraction): 0.00153
In acetone, 283.15 K
  solubility (mole fraction): 0.00181
In acetone, 288.15 K
  solubility (mole fraction): 0.00212
In acetone, 293.15 K
  solubility (mole fraction): 0.00246
In acetone, 298.15 K
  solubility (mole fraction): 0.00281
In acetone, 303.15 K
  solubility (mole fraction): 0.00318
In acetone, 308.15 K
  solubility (mole fraction): 0.00359
In acetone, 313.15 K
  solubility (mole fraction): 0.00403
In acetonitrile, 273.15 K
  solubility (mole fraction): 0.000983
In acetonitrile, 278.15 K
  solubility (mole fraction): 0.00115
In acetonitrile, 283.15 K
  solubility (mole fraction): 0.00136
In acetonitrile, 288.15 K
  solubility (mole fraction): 0.0016
In acetonitrile, 293.15 K
  solubility (mole fraction): 0.00185
In acetonitrile, 298.15 K
  solubility (mole fraction): 0.00215
In acetonitrile, 303.15 K
  solubility (mole fraction): 0.00243
In acetonitrile, 308.15 K
  solubility (mole fraction): 0.00274
In acetonitrile, 313.15 K
  solubility (mole fraction): 0.00308
In ethanol, 273.15 K
  solubility (mole fraction): 4.5e-05
In ethanol, 278.15 K
  solubility (mole fraction): 5.8e-05
In ethanol, 283.15 K
  solubility (mole fraction): 7.5e-05
In ethanol, 288.15 K
  solubility (mole fraction): 9.1e-05
In ethanol, 293.15 K
  solubility (mole fraction): 0.00011
In ethanol, 298.15 K
  solubility (mole fraction): 0.00013
In ethanol, 303.15 K
  solubility (mole fraction): 0.000159
In ethanol, 308.15 K
  solubility (mole fraction): 0.000194
In ethanol, 313.15 K
  solubility (mole fraction): 0.00024
In ethyl acetate, 273.15 K
  solubility (mole fraction): 0.000724
In ethyl acetate, 278.15 K
  solubility (mole fraction): 0.000884
In ethyl acetate, 283.15 K
  solubility (mole fraction): 0.00107
In ethyl acetate, 288.15 K
  solubility (mole fraction): 0.00126
In ethyl acetate, 293.15 K
  solubility (mole fraction): 0.00148
In ethyl acetate, 298.15 K
  solubility (mole fraction): 0.00171
In ethyl acetate, 303.15 K
  solubility (mole fraction): 0.00198
In ethyl acetate, 308.15 K
  solubility (mole fraction): 0.00228
In ethyl acetate, 313.15 K
  solubility (mole fraction): 0.00263
In isopropanol, 273.15 K
  solubility (mole fraction): 3.8e-05
In isopropanol, 278.15 K
  solubility (mole fraction): 5.2e-05
In isopropanol, 283.15 K
  solubility (mole fraction): 6.5e-05
In isopropanol, 288.15 K
  solubility (mole fraction): 8.1e-05
In isopropanol, 293.15 K
  solubility (mole fraction): 9.8e-05
In isopropanol, 298.15 K
  solubility (mole fraction): 0.000118
In isopropanol, 303.15 K
  solubility (mole fraction): 0.000142
In isopropanol, 308.15 K
  solubility (mole fraction): 0.000166
In isopropanol, 313.15 K
  solubility (mole fraction): 0.000204
In methanol, 273.15 K
  solubility (mole fraction): 4.9e-05
In methanol, 278.15 K
  solubility (mole fraction): 6.6e-05
In methanol, 283.15 K
  solubility (mole fraction): 8.1e-05
In methanol, 288.15 K
  solubility (mole fraction): 0.000101
In methanol, 293.15 K
  solubility (mole fraction): 0.000123
In methanol, 298.15 K
  solubility (mole fraction): 0.000147
In methanol, 303.15 K
  solubility (mole fraction): 0.000171
In methanol, 308.15 K
  solubility (mole fraction): 0.000207
In methanol, 313.15 K
  solubility (mole fraction): 0.000254
In n-butanol, 273.15 K
  solubility (mole fraction): 7.1e-05
In n-butanol, 278.15 K
  solubility (mole fraction): 8.8e-05
In n-butanol, 283.15 K
  solubility (mole fraction): 0.000106
In n-butanol, 288.15 K
  solubility (mole fraction): 0.000131
In n-butanol, 293.15 K
  solubility (mole fraction): 0.00016
In n-butanol, 298.15 K
  solubility (mole fraction): 0.00019
In n-butanol, 303.15 K
  solubility (mole fraction): 0.000223
In n-butanol, 308.15 K
  solubility (mole fraction): 0.000269
In n-butanol, 313.15 K
  solubility (mole fraction): 0.000324
In n-propanol, 273.15 K
  solubility (mole fraction): 5.6e-05
In n-propanol, 278.15 K
  solubility (mole fraction): 7.3e-05
In n-propanol, 283.15 K
  solubility (mole fraction): 9.2e-05
In n-propanol, 288.15 K
  solubility (mole fraction): 0.000115
In n-propanol, 293.15 K
  solubility (mole fraction): 0.000141
In n-propanol, 298.15 K
  solubility (mole fraction): 0.00017
In n-propanol, 303.15 K
  solubility (mole fraction): 0.000199
In n-propanol, 308.15 K
  solubility (mole fraction): 0.000242
In n-propanol, 313.15 K
  solubility (mole fraction): 0.000304
In toluene, 273.15 K
  solubility (mole fraction): 0.00044
In toluene, 278.15 K
  solubility (mole fraction): 0.000533
In toluene, 283.15 K
  solubility (mole fraction): 0.000648
In toluene, 288.15 K
  solubility (mole fraction): 0.00076
In toluene, 293.15 K
  solubility (mole fraction): 0.000895
In toluene, 298.15 K
  solubility (mole fraction): 0.00105
In toluene, 303.15 K
  solubility (mole fraction): 0.00122
In toluene, 308.15 K
  solubility (mole fraction): 0.00141
In toluene, 313.15 K
  solubility (mole fraction): 0.00161
